According to ChEMBL document CHEMBL5244205, “Discovery of tricyclic dipyrrolopyridine derivatives as novel JAK inhibitors” (Bioorg Med Chem, 2017):

What was measured:
[1] = biological target: Serine/threonine-protein kinase Chk1 (Homo sapiens) (UniProt O14757); assay: Inhibition of CHK1 (unknown origin) at 1000 nM relative to control
[2] = biological target: High affinity nerve growth factor receptor (Homo sapiens, UniProt P04629); assay: Inhibition of TRKA (unknown origin) at 1000 nM relative to control
[3] = biological target: Glycogen synthase kinase-3 beta (Homo sapiens, UniProt P49841); assay: Inhibition of GSK3beta (unknown origin) at 1000 nM relative to control
Glycogen synthase kinase-3 beta, sequence (P49841 whole entry, looked up): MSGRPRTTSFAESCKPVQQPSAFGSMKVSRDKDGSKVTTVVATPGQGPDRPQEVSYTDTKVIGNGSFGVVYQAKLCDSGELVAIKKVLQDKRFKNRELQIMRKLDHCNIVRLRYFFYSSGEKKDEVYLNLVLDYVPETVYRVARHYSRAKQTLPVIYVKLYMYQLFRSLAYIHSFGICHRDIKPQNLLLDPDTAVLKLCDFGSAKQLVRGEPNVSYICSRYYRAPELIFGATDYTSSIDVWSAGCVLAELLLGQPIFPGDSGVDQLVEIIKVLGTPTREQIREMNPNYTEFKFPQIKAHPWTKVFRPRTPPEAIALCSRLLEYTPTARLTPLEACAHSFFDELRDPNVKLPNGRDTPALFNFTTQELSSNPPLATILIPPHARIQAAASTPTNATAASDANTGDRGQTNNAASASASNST

[4] = biological target: Calcium/calmodulin-dependent protein kinase type II subunit alpha (Homo sapiens, UniProt Q9UQM7); assay: Inhibition of CAMK2alpha (unknown origin) at 1000 nM relative to control
Homo sapiens = organism: Homo sapiens; assay: Selectivity index, ratio of IC50 for human JAK3 to IC50 for human JAK2
[5] = biological target: Ribosomal protein S6 kinase beta-1 (Homo sapiens, UniProt P23443); assay: Inhibition of p70S6K (unknown origin) at 1000 nM relative to control
[6] = biological target: Proto-oncogene tyrosine-protein kinase Src (Homo sapiens, UniProt P12931); assay: Inhibition of SRC (unknown origin) at 1000 nM relative to control
[7] = biological target: Protein kinase C alpha type (Homo sapiens) (UniProt P17252); assay: Inhibition of PKCalpha (unknown origin) at 1000 nM relative to control
[8] = biological target: Cyclin-dependent kinase 2 (Homo sapiens, UniProt P24941); assay: Inhibition of CDK2 (unknown origin) at 1000 nM relative to control
[9] = biological target: Tyrosine-protein kinase Lck (Homo sapiens) (UniProt P06239); assay: Inhibition of LCK (unknown origin) at 1000 nM relative to control
Tyrosine-protein kinase Lck (Homo sapiens), sequence (P06239 2-509 limits assumed): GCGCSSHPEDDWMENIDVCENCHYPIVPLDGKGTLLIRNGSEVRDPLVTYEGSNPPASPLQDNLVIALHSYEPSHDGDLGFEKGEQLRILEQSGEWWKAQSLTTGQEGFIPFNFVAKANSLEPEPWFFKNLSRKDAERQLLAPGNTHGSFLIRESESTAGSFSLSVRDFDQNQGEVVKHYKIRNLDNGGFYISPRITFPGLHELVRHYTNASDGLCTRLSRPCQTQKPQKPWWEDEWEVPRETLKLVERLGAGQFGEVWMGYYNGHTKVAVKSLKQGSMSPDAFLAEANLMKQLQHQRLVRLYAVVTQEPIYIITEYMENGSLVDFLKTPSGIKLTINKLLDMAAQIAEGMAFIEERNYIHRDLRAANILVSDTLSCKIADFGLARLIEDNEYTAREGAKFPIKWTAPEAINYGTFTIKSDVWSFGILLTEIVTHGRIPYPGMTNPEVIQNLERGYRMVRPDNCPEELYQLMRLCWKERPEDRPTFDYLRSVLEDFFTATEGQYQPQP

[10] = biological target: Rho-associated protein kinase 1 (Homo sapiens) (UniProt Q13464); assay: Inhibition of ROCK1 (unknown origin) at 1000 nM relative to control
Rho-associated protein kinase 1 (Homo sapiens), sequence (Q13464 2-1354 limits assumed): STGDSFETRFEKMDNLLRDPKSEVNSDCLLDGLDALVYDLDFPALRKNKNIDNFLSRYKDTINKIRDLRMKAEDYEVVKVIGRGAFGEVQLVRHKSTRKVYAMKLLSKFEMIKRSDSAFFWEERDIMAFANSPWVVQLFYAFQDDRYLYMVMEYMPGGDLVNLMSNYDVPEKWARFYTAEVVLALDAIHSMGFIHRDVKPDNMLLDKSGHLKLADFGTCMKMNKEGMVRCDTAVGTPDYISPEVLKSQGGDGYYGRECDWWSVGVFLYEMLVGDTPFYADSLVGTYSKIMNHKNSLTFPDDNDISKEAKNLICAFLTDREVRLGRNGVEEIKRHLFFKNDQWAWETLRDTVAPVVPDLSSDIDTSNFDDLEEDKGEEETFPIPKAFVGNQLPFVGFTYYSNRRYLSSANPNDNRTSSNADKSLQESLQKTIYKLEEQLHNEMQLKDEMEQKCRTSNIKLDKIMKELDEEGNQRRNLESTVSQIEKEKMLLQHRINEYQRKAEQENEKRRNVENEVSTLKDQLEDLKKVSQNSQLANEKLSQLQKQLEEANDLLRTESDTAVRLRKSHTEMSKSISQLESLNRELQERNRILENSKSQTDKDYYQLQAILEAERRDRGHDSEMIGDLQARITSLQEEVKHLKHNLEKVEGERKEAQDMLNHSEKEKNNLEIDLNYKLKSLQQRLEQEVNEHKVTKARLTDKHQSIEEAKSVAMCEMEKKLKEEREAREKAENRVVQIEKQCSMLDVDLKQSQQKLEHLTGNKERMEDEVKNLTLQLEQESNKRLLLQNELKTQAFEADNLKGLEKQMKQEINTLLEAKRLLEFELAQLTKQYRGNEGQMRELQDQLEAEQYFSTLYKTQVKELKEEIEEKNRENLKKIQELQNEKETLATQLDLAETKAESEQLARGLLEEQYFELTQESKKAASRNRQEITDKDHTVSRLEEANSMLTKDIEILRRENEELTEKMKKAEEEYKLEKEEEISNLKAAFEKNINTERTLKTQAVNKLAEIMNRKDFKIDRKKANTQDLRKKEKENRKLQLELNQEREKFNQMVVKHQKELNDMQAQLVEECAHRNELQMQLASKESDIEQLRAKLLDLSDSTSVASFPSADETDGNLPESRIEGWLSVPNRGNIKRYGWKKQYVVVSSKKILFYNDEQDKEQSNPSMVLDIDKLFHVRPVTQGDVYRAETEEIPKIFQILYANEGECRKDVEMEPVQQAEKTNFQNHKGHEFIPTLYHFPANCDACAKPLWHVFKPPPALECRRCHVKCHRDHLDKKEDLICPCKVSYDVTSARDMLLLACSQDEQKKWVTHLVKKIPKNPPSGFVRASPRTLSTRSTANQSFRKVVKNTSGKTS

[11] = biological target: Mitogen-activated protein kinase 8 (Homo sapiens, UniProt P45983); assay: Inhibition of JNK1 (unknown origin) at 1000 nM relative to control
[12] = biological target: Aurora kinase C (Homo sapiens) (UniProt Q9UQB9); assay: Inhibition of AURC (unknown origin) at 1000 nM relative to control
[13] = biological target: RAC-alpha serine/threonine-protein kinase (Homo sapiens, UniProt P31749); assay: Inhibition of AKT1 (unknown origin) at 1000 nM relative to control
[14] = biological target: Dual specificity mitogen-activated protein kinase kinase 1 (Homo sapiens, UniProt Q02750); assay: Inhibition of MAP2K1 (unknown origin) at 1000 nM relative to control
[15] = biological target: Tyrosine-protein kinase JAK2 (Homo sapiens, UniProt O60674)
Tyrosine-protein kinase JAK2, sequence (O60674 whole entry): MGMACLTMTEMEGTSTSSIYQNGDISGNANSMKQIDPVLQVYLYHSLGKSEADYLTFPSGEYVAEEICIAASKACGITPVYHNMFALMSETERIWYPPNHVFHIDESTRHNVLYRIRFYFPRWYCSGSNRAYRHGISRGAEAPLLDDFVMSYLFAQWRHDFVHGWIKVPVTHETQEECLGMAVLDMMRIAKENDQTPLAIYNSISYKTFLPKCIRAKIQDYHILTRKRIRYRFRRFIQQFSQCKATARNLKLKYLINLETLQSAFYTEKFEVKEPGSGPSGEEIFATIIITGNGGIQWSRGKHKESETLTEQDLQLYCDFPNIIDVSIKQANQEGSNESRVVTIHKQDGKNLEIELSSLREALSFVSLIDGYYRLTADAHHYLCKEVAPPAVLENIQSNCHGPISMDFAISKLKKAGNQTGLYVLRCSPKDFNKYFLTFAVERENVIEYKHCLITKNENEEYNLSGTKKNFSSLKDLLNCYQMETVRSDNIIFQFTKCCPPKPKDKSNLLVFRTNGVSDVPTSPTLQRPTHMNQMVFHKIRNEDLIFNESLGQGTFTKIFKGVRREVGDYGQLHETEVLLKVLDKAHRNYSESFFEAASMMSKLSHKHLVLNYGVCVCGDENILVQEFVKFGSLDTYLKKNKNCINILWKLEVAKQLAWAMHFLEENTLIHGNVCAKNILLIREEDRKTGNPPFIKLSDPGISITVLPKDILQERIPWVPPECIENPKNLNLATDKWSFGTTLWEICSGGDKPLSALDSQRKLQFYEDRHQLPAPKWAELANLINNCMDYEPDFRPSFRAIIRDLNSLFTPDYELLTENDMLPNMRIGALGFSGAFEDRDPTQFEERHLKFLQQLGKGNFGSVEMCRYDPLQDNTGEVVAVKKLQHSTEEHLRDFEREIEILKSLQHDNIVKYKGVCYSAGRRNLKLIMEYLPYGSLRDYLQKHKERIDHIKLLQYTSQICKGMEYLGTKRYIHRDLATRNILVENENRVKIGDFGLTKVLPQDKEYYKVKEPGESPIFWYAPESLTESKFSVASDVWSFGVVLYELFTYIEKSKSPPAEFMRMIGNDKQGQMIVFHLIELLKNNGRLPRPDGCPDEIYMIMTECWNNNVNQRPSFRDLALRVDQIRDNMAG
Description: Inhibition of human JAK2 kinase domain using biotin-Lyn-substrate-2 as substrate incubated for 1 hr by ELISA

[16] = biological target: T1, Tyrosine-protein kinase JAK3 (Homo sapiens, UniProt P52333)
T1 sequence (P52333 whole entry): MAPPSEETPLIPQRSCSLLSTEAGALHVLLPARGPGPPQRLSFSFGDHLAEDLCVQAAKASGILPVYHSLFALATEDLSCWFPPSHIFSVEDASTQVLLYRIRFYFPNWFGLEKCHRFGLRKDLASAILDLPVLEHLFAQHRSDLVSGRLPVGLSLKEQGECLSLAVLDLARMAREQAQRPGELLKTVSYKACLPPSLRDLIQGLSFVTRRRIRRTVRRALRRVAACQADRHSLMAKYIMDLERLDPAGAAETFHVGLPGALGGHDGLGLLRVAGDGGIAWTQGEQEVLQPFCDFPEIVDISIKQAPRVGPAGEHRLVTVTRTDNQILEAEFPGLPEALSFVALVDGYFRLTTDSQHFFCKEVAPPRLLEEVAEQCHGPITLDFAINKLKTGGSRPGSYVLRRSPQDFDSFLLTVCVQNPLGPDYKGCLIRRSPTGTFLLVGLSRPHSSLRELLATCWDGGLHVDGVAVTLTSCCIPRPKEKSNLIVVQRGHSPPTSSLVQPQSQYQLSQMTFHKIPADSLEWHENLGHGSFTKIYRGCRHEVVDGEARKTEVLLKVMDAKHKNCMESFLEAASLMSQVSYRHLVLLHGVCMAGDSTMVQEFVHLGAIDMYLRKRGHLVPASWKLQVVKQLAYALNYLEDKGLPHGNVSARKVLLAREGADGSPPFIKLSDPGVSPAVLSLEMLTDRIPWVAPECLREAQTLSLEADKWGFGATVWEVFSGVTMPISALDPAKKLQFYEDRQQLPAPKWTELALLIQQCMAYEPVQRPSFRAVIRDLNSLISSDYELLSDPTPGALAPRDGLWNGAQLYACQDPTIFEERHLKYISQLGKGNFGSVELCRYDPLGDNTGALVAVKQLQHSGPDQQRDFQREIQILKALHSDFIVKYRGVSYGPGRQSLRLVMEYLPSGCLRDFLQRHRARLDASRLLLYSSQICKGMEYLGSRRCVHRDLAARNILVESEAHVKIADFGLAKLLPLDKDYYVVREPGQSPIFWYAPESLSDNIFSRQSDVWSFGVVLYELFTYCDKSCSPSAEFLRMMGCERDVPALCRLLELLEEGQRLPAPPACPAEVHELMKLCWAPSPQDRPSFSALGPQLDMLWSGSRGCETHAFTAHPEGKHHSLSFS
Description: Inhibition of human JAK3 kinase domain using biotin-Lyn-substrate-2 as substrate incubated for 1 hr by ELISA

in vitro [17] = conditions: PAMPA, pH 6.5, permeability
Description: Permeability of the compound in pH 6.5 incubated for 2 hrs by PAMPA based HPLC analysis

in vitro [18] = conditions: Sprague-Dawley, rat, liver microsomes, CLH
[19] = biological target: Tyrosine-protein kinase JAK1 (Homo sapiens, UniProt P23458)
Tyrosine-protein kinase JAK1, sequence (P23458 whole entry): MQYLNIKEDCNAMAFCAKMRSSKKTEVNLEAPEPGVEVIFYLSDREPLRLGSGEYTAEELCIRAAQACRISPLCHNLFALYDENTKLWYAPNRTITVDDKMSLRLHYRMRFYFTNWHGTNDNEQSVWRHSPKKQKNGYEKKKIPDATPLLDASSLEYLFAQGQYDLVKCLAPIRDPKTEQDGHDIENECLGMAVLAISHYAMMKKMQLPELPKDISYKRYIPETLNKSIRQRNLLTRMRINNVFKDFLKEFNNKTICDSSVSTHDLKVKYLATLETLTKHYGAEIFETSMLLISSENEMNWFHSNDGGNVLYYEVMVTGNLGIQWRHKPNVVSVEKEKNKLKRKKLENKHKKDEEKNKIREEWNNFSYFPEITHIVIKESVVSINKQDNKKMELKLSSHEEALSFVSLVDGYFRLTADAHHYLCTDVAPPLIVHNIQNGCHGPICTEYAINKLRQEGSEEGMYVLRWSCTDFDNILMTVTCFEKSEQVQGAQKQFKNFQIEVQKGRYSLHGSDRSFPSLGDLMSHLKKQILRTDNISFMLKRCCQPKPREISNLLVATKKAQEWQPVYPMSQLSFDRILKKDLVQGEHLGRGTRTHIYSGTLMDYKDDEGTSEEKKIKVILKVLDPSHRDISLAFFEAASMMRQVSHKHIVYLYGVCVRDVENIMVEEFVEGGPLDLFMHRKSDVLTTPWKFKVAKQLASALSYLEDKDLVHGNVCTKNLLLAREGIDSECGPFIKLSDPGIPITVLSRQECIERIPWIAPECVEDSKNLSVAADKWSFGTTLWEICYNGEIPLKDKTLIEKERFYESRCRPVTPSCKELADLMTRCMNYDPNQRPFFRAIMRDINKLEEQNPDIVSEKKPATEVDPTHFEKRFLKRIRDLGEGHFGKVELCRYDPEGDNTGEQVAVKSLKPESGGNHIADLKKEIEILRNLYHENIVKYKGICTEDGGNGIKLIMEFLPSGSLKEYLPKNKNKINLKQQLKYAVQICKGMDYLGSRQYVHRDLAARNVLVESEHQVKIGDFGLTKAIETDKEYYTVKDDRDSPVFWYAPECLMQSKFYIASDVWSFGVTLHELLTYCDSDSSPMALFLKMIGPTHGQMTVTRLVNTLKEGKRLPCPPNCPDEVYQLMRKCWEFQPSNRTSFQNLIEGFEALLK
Description: Inhibition of human JAK1 kinase domain using biotin-Lyn-substrate-2 as substrate incubated for 1 hr by ELISA

CYP3A4 = CYP3A4 (Homo sapiens, UniProt P08684); assay: in vitro; conditions: liver microsomes, probe midazolam, TDI
CYP3A4, sequence (P08684 whole entry): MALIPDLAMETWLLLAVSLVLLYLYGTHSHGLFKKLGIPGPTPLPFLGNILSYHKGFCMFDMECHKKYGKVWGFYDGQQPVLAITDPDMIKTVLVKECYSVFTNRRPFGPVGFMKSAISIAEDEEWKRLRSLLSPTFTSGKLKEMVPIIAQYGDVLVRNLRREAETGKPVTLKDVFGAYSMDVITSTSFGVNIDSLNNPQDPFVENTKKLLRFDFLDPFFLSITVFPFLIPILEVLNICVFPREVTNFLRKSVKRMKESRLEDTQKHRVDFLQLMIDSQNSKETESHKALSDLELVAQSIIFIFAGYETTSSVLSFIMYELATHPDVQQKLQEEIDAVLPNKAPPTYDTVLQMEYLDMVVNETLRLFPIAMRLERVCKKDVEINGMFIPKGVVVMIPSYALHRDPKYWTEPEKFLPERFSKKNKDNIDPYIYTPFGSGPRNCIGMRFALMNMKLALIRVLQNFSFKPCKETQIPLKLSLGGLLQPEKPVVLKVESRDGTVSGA

[20] = Volume of distribution in Sprague-Dawley rat at 1 mg/kg, iv measured up to 24 hrs by LC-MS/MS analysis; assay type: ADME, organism-based; conditions: in vivo
[21] = AUC (0 to 24 hrs) in Sprague-Dawley rat at 1 mg/kg, po measured up to 24 hrs by LC-MS/MS analysis; assay type: ADME, organism-based; set-up: dose 1 mg/kg, time < 24 hrs, route po; conditions: in vivo
[22] = Tmax in Sprague-Dawley rat at 1 mg/kg, po measured up to 24 hrs by LC-MS/MS analysis; assay type: ADME, organism-based; conditions: in vivo
[23] = Cmax in Sprague-Dawley rat at 1 mg/kg, po measured up to 24 hrs by LC-MS/MS analysis; assay type: ADME, organism-based; set-up: time < 24 hrs, dose 1 mg/kg, route po; conditions: in vivo
[24] = Half life in Sprague-Dawley rat at 1 mg/kg, iv measured up to 24 hrs by LC-MS/MS analysis; assay type: ADME, organism-based; conditions: in vivo
[25] = Half life in Sprague-Dawley rat at 1 mg/kg, po measured up to 24 hrs by LC-MS/MS analysis; assay type: ADME, organism-based; conditions: in vivo
[26] = Clearance in Sprague-Dawley rat at 1 mg/kg, iv measured up to 24 hrs by LC-MS/MS analysis; assay type: ADME, organism-based; conditions: in vivo
[27] = AUC (0 to 24 hrs) in Sprague-Dawley rat at 1 mg/kg, iv measured up to 24 hrs by LC-MS/MS analysis; assay type: ADME, organism-based; set-up: dose 1 mg/kg, time < 24 hrs, route iv; conditions: in vivo
[28] = Oral availability in Sprague-Dawley rat at 1 mg/kg measured up to 24 hrs by LC-MS/MS analysis; assay type: ADME, organism-based; conditions: in vivo

| Compound | IC50 [15] [nM] | IC50 [16] [nM] | Papp at 2 h (in vitro [17]) [×10⁻⁶ cm/s] | CLint scaled at 0.75 h, 0.2 µM (in vitro [18]) [mL/min/kg] | IC50 [19] [nM] | inhibition at 20 min, 5 µM (CYP3A4) [%] | other results |
| --- | --- | --- | --- | --- | --- | --- | --- |
| C[C@@H]1CCN(C(=O)CC#N)C[C@@H]1n1ccc2cnc3[nH]cc(C#N)c3c21 |  |  |  |  |  |  | inhibition [1]: 59%; inhibition [2]: 67%; inhibition [3]: 92%; inhibition [4]: 54%; Ratio IC50 (Homo sapiens): 10; inhibition [5]: 78%; inhibition [6]: 51%; inhibition [7]: 98%; inhibition [8]: 91%; inhibition [9]: 88%; inhibition [10]: 75%; inhibition [11]: 59%; inhibition [12]: 77%; inhibition [13]: 80%; inhibition [14]: 90% |
| Cc1c[nH]c2ncc3ccn([C@H]4CN(C(=O)CC#N)CC[C@H]4C)c3c12 (racemic) | 4.9 | 2.5 | 23 | 309 |  | 62 |  |
| C[C@H]1CCN(C(=O)CC#N)C[C@H]1n1ccc2cnc3[nH]ccc3c21 | 390 | 200 | 21 | 89 |  | 88 |  |
| C[C@@H]1CCN(C(=O)CC#N)C[C@@H]1n1ncc2cnc3[nH]ccc3c21 (racemic) | 11 | 4.1 | 5.9 |  | 7.5 |  |  |
| C[C@@H]1CCN(C(=O)CC#N)C[C@@H]1n1ccc2cnc3[nH]ccc3c21 |  |  |  |  |  |  | inhibition [7]: 67%; inhibition [9]: 55%; inhibition [10]: 75% |
| C[C@@H]1CCN(C(=O)CC#N)C[C@@H]1n1ccc2cnc3[nH]cc(C#N)c3c21 (racemic) | 4.1 | 0.38 | 13 | 419 |  | 90 |  |
| C[C@@H]1CCN(C(=O)CC#N)C[C@@H]1n1ccc2cnc3[nH]ccc3c21 (racemic) | 1 | 0.44 | 13 | 110 | 1.1 | 90 |  |
| C[C@@H]1CCN(C(=O)CC#N)C[C@@H]1n1cc(C#N)c2cnc3[nH]ccc3c21 (racemic) | 2.2 | 1.1 | 3.8 | 47 |  | 91 |  |

Further lines, with some results ahead:

| IC50 [15] [nM] | IC50 [16] [nM] | Papp at 2 h (in vitro [17]) [×10⁻⁶ cm/s] | CLint scaled at 0.75 h, 0.2 µM (in vitro [18]) [mL/min/kg] | IC50 [19] [nM] | inhibition at 20 min, 5 µM (CYP3A4) [%] | Compound | other results |
| --- | --- | --- | --- | --- | --- | --- | --- |
| 0.3 | 0.17 | 26 | 154 | 0.43 | 44 | Cc1cc2cnc3[nH]ccc3c2n1[C@H]1CN(C(=O)CC#N)CC[C@H]1C (racemic) |  |
| 3.5 | 1.4 | < 0.8 |  | 3.2 | 88 | C[C@@H]1CCN(C(=O)Cn2cnnn2)C[C@@H]1n1c(=O)[nH]c2cnc3[nH]ccc3c21 (racemic) |  |
| 15 | 7.1 | 6.3 | 44 | 58 | 18 | C[C@@H]1CCN(C(=O)C(C)(C)C#N)C[C@@H]1n1c(=O)[nH]c2cnc3[nH]ccc3c21 (racemic) |  |
| 12 | 5.5 | 1.3 |  | 19 | 61 | C[C@@H]1CCN(C(=O)N2CCOCC2)C[C@@H]1n1c(=O)[nH]c2cnc3[nH]ccc3c21 (racemic) |  |
|  |  | < 0.7 |  |  | 90 | C[C@@H]1CCN(C(=O)CC#N)C[C@@H]1n1c(=O)[nH]c2cnc3[nH]ccc3c21 (racemic) | Vd [20]: 3.62 L/kg; AUC(0-t) at 24 h [21]: 11.8 ng·h/mL; Tmax [22]: 15 min; Cmax [23]: 2.98 ng/mL; half-life [24]: 67.8 min; half-life [25]: 708 min; clearance [26]: 113 mL/min/kg; AUC(0-t) at 24 h [27]: 148 ng·h/mL; bioavailability [28]: 11.2% |
|  |  | 2.5 |  |  |  | C[C@@H]1CCN(C(=O)CC#N)C[C@@H]1n1c(=O)n(C)c2cnc3[nH]ccc3c21 (racemic) |  |
| 4.5 | 1.6 | 8.8 | 195 | 9 | 29 | C[C@@H]1CCN(c2ccc(C#N)cn2)C[C@@H]1n1c(=O)[nH]c2cnc3[nH]ccc3c21 (racemic) |  |
| 7 | 2.1 | 11 | 249 | 13 | 11 | C[C@@H]1CCN(C(=O)N2CCCCC2)C[C@@H]1n1c(=O)[nH]c2cnc3[nH]ccc3c21 (racemic) |  |
